Each structure is given as a SMILES string. Bounds are passed on as bounds.

Sequence of human NaV 1.7 (Q15858 whole entry): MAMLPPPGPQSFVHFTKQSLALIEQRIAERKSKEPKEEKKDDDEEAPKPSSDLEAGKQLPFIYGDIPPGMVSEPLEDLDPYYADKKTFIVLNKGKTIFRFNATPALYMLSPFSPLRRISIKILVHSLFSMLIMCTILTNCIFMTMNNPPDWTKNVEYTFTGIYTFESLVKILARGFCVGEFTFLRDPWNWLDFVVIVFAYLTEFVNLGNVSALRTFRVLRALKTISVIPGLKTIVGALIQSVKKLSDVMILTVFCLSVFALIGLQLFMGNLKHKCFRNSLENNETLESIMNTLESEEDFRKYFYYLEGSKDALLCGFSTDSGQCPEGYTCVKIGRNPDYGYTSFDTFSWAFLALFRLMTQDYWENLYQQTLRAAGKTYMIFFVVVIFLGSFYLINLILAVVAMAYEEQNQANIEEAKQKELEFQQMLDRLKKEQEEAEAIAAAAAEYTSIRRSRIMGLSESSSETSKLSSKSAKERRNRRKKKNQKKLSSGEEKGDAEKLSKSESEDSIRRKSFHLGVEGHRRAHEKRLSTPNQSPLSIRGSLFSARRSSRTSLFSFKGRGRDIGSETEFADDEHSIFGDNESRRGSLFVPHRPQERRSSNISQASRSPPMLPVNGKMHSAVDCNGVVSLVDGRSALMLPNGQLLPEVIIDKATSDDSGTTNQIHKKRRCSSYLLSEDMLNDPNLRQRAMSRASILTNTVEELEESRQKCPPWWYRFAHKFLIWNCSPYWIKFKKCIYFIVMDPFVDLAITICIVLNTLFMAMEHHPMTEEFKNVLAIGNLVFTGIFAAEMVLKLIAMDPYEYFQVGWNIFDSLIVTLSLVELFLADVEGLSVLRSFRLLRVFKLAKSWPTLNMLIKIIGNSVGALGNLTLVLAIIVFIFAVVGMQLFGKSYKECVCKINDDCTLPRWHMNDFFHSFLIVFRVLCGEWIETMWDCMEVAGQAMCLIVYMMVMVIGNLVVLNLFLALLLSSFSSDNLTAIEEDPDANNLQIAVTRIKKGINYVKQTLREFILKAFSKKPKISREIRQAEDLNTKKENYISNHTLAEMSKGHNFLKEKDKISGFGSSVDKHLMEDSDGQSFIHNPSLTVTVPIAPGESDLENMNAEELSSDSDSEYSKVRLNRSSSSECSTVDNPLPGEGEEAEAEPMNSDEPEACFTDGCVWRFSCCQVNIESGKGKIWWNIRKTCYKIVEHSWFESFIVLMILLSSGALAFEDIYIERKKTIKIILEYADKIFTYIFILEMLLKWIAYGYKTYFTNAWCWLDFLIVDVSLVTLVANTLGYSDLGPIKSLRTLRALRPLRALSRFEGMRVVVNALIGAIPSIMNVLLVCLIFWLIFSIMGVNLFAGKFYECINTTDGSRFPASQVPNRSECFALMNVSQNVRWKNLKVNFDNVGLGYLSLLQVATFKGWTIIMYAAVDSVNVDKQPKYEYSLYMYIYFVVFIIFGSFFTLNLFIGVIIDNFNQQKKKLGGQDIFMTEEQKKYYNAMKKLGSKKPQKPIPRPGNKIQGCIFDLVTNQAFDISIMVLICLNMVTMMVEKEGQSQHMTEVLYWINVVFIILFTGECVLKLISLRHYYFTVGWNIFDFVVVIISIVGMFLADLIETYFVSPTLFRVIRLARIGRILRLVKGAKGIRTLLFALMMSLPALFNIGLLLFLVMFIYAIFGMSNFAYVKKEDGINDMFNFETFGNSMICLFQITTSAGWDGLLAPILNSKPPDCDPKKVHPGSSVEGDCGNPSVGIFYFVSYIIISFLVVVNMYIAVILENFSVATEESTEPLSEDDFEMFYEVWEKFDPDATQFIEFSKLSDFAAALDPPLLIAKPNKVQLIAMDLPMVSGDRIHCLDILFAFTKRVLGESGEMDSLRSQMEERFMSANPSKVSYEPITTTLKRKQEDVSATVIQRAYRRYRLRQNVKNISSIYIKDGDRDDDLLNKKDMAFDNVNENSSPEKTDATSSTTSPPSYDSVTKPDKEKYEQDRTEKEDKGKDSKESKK

The assay addresses human NaV 1.7 (Homo sapiens, UniProt Q15858). Description: E-VIPR optical membrane potential assay with electrical stimulation. It is filed as cell-based. The note with it: sodium channel inhibition; read-out: Binned Activity Data (IC50). The gist of the method: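 Membrane-potential read-out: background-subtracted 460 nm/580 nm ratio during a 9 s current-controlled stimulus, 400 Hz scan. Before stimulation, NaV1.7-HEK cells carried coumarin/oxonol dye and compound (final DMSO 0.625%) for 20–35 min at room temperature; tetracaine 125 μM served as positive control.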
`COc1cc(C(F)(F)F)ccc1C(=O)N1CCC2(CC1)Oc1cc(Cl)ccc1-n1cccc12` [Compound 484]: the IC50 is no more than 2 µM. Consider `CCOc1cccc(C(=O)N2CCC3(CC2)Oc2ccccc2-n2c(C#N)ccc23)c1F` [Compound 485], for which the IC50 is no more than 2 µM. `Cn1cc2c(n1)-c1cc(F)ccc1OC21CCN(C(=O)c2ccc(C(C)(C)O)cc2)CC1` [Compound 486]: the IC50 is no more than 2 µM. On to `COc1cccc2c1c(C(=O)N1CCC3(CC1)Oc1ccccc1-c1c3cnn1C)cn2C` [Compound 487], for which the IC50 was no more than 2 µM. Take `CCc1ccc(C(=O)N2CCC3(CC2)Oc2cc(Cl)ccc2-n2cccc23)cc1O` [Compound 489]: the IC50 is 2 to 5 µM. Turning to `Cc1cc(C(=O)N2CCC3(CC2)Oc2cccc(C)c2-n2c(C#N)ccc23)ccc1OC(C)C` [Compound 490], the IC50 was no more than 2 µM. Regarding `Cc1cccc(C(=O)N2CCC3(CC2)Oc2ccccc2-c2c3cnn2C)c1` [Compound 491], the IC50 is greater than 5 µM. Next, `CNS(=O)(=O)c1ccc(C(=O)N2CCC3(CC2)Oc2ccccc2-c2c3cnn2C)cc1` [Compound 494]: no more than 2 µM. As for `Cn1ncc2c1-c1ccccc1OC21CCN(C(=O)c2ccc(OCCO)cc2)CC1` [Compound 496], the IC50 is greater than 5 µM. Next, `COc1cc(C(=O)N2CCC3(CC2)Oc2cc(Cl)ccc2-n2cccc23)ccc1C(C)(C)OC` [Compound 497]: no more than 2 µM; `CN(C)c1cc(C(=O)N2CCC3(CC2)Oc2ccccc2-c2c3cnn2C)ccn1` [Compound 499]: 2 to 5 µM.

As to `Cc1cc(C(=O)N2CCC3(CC2)Oc2ccccc2-c2[nH]ncc23)ccc1OC(C)C` [Compound 500], the IC50 was no more than 2 µM. For `CC(C)NS(=O)(=O)c1ccc(C(=O)N2CCC3(CC2)Oc2ccccc2-c2nn(C)cc23)cc1` [Compound 501], the IC50 is no more than 2 µM. As to `Cc1ccc(C(=O)N2CCC3(CC2)Oc2cc(Cl)ccc2-n2cccc23)c(=O)n1C` [Compound 502], the IC50 was no more than 2 µM. For `Cc1nc2ccc(C(=O)N3CCC4(CC3)Oc3ccccc3-n3c(C(F)(F)F)ccc34)cc2s1` [Compound 503], the IC50 is no more than 2 µM.

Consider `CS(=O)(=O)c1ccc(C(=O)N2CCC3(CC2)Oc2ccccc2-n2c(C#N)ccc23)cc1C(F)(F)F` [Compound 504], for which the IC50 was no more than 2 µM.

On to `O=C(c1ccc2nc(Cl)sc2c1)N1CCC2(CC1)Oc1ccccc1-n1c(C(F)(F)F)ccc12` [Compound 505], for which the IC50 is 2 to 5 µM. `Cn1ncc2c1-c1ccccc1OC21CCN(C(=O)c2ccc(C(C)(C)O)cc2)CC1` [Compound 506]: the IC50 was no more than 2 µM. As to `COc1cc(C(=O)N2CCC3(CC2)Oc2ccccc2-c2c3cnn2C)ccc1OCC(N)=O` [Compound 507], the IC50 is greater than 5 µM.

Consider `CC(C)S(=O)(=O)c1ccc(C(=O)N2CCC3(CC2)Oc2ccccc2-n2c(F)ccc23)cc1` [Compound 508], for which the IC50 is no more than 2 µM. In the case of `Cc1cc(C(=O)N2CCC3(CC2)Oc2ccccc2-n2c(C#N)ccc23)ccc1S(C)(=O)=O` [Compound 509], the IC50 is no more than 2 µM. Next, `CCc1ccc(C(=O)N2CCC3(CC2)Oc2cc(C#N)ccc2-n2cccc23)cc1OC` [Compound 511]: no more than 2 µM; `COc1cc(C(=O)N2CCC3(CC2)Oc2cc(Cl)ccc2-n2cccc23)ccc1C1CC1` [Compound 512]: no more than 2 µM. With `CS(=O)(=O)c1cccc(C(=O)N2CCC3(CC2)Oc2cc(Cl)ccc2-n2cccc23)c1` [Compound 513], the IC50 is no more than 2 µM.

As to `CC(=O)NCc1ccc2n1-c1ccccc1OC21CCN(C(=O)c2ccc(OC(C)C)c(C)c2)CC1` [Compound 514], the IC50 is no more than 2 µM. As to `Cn1ncc2c1-c1ccccc1OC21CCN(C(=O)c2ccc(OC(F)F)cc2OC(F)F)CC1` [Compound 515], the IC50 was no more than 2 µM. On to `Cc1c(CO)cccc1C(=O)N1CCC2(CC1)Oc1ccccc1-n1c(C#N)ccc12` [Compound 516], for which the IC50 was no more than 2 µM.

Regarding `CC(C)Oc1ccc(C(=O)N2CCC3(CC2)Oc2ccccc2-n2cccc23)cc1C(N)=O` [Compound 517], the concentration for half-maximal inhibition (IC50) is no more than 2 µM. Take `Cn1ncc2c1-c1ccc(Cl)cc1OC21CCN(C(=O)c2ccccc2OC(F)(F)F)CC1` [Compound 518]: the IC50 was no more than 2 µM. The figure for `COc1cccc(F)c1C(=O)N1CCC2(CC1)Oc1ccccc1-n1c(C#N)ccc12` [Compound 519] is no more than 2 µM.

On to `CCNS(=O)(=O)c1ccc(C(=O)N2CCC3(CC2)Oc2ccccc2-c2c3cnn2C)cc1` [Compound 521], for which the IC50 is no more than 2 µM. `Cc1ccc2c(c1)OC1(CCN(C(=O)c3ccc(S(C)(=O)=O)c(C)c3)CC1)c1ccc(C#N)n1-2` [Compound 522]: the IC50 was no more than 2 µM. `CNS(=O)(=O)c1ccc(C(=O)N2CCC3(CC2)Oc2ccccc2-c2nn(C)cc23)cc1C` [Compound 523]: the IC50 was no more than 2 µM. Turning to `Cn1ncc2c1-c1ccccc1OC21CCN(C(=O)c2ccc3nc(N)sc3c2)CC1` [Compound 524], the IC50 is no more than 2 µM. For the compound `Cc1cc(C(=O)N2CCC3(CC2)Oc2ccccc2-c2ncn(C)c23)ccc1OC(C)C` [Compound 525], the half-maximal inhibitory concentration (IC50) is no more than 2 µM. Next, `CCn1ncc2c1-c1ccccc1OC21CCN(C(=O)c2cccc(F)c2OC(F)F)CC1` [Compound 528]: no more than 2 µM.

In the case of `COc1cc(C(=O)N2CCC3(CC2)Oc2cc(Cl)ccc2-n2cccc23)ccc1C(C)(C)C` [Compound 529], the IC50 was no more than 2 µM. Regarding `N#Cc1ccc2n1-c1ccccc1OC21CCN(C(=O)c2ccc(S(=O)(=O)C(F)F)cc2)CC1` [Compound 530], the IC50 was no more than 2 µM. Take `CC(C)Oc1ccc(C(=O)N2CCC3(CC2)Oc2ccccc2-n2c(C(F)(F)F)ccc23)cc1CO` [Compound 531]: the IC50 is no more than 2 µM.

As to `COCCOc1cc(F)c(C(=O)N2CCC3(CC2)Oc2ccccc2-n2cccc23)cc1OC` [Compound 532], the IC50 is no more than 2 µM.

As for `COc1cc(C(=O)N2CCC3(CC2)Oc2cccnc2-n2cccc23)ccc1O[C@@H]1CCOC1` [Compound 533], the IC50 was no more than 2 µM. Consider `COc1cc(OC)cc(C(=O)N2CCC3(CC2)Oc2cc(Cl)ccc2-n2cccc23)c1` [Compound 534], for which the IC50 is no more than 2 µM.

Regarding `O=C(c1cccnc1N1CCCC1)N1CCC2(CC1)Oc1ccccc1-n1c(C(F)(F)F)ccc12` [Compound 535], the IC50 was no more than 2 µM. As for `CC(C)(C)c1ccc(C(=O)N2CCC3(CC2)Oc2cc(F)ccc2-n2cccc23)cc1C#N` [Compound 536], the IC50 is no more than 2 µM. Take `COc1cc(C(=O)N2CCC3(CC2)Oc2ccccc2-c2c3cnn2C)ccc1C(C)(C)O` [Compound 537]: the IC50 is no more than 2 µM. Next, `Cc1cc(C(=O)N2CCC3(CC2)Oc2ccccc2-n2cccc23)ccc1OC(C)(C)C` [Compound 538]: no more than 2 µM; `N#Cc1ccc2n1-c1ccccc1OC21CCN(C(=O)c2ccc(S(=O)(=O)NCCCO)cc2)CC1` [Compound 540]: 2 to 5 µM. Turning to `O=C(c1ccc(S(=O)(=O)NC2CC2)cc1)N1CCC2(CC1)Oc1ccccc1-n1c(C(F)(F)F)ccc12` [Compound 541], the IC50 was no more than 2 µM. As for `COc1ccc(C(=O)N2CCC3(CC2)Oc2ccccc2-n2cccc23)cc1S(N)(=O)=O` [Compound 542], the IC50 lay in the range of 2 to 5 µM. As for `Cc1cc(C(=O)N2CCC3(CC2)Oc2ccccc2-c2c3cnn2C)ccc1S(=O)(=O)C(C)C` [Compound 543], the IC50 was no more than 2 µM.

As a reminder, the IC50 is the concentration needed to halve the response being measured.

The values above are taken from patent US9365588B2, “Benzoxazines as modulators of ion channels” (Vertex Pharmaceuticals Incorporated, priority 2011, dated 2016).
